Data published in US20150051210A1, “Tyrosine Kinase Inhibitor Combinations and their Use” (Novartis AG, priority 2012, published 2015).

Tests used:
Format in all cases: cell-based
[1] = system: RT-112 cells; assay: RT-112 Dual Inhibition: reversal of rescue with selective inhibitors, CellTiter-Glo cell viability; conditions: RT-112, rhHGF or rhNRG-1 250 ng/ml, 96 h; BGJ398 100 nM, Cpd. A/Cpd. B 500 nM, Lapatinib 1.5 μM; FIG. 5, FIG. 6
Description: RT-112 Secretome screen: The basic format was identical to the MKN-45 secretome screen with slight modifications. RT-112 cells were plated in EMEM+10% in white, tissue-culture treated 384-well plates at 1000 cells/20 μl/well and allowed to attach overnight. Supernatant from library-transfected HEK293T/17 cells was transferred as described above for the MKN-45 secretome screen. Purified proteins rhNRG1-31 and rhTGFα were added as positive controls, at a final concentration of 150 ng/ml. Following addition of supernatants and purified protein controls, BGJ398 diluted in DMEM was added at 10 μl/well for a final assay concentration of 100 nM. Cell viability was measured after 72 hours using CellTiter-Glo as described above. (FIG. 2)
RT-112 Dual Inhibition: The format for the RT-112 dual inhibition experiment was similar to that described for MKN-45 with the following modifications. RT-112 cells were plated at 1000 cells/20 μl/well. Solutions of rhHGF and rhNRG-1 were added to achieve a final concentration of 250 ng/ml. Single and dual inhibition conditions were prepared as follows: BGJ398, Cpd. A, Cpd. B, Lapatinib, BGJ398 and Cpd. A, BGJ398 and Cpd. B, BGJ398 and Lapatinib. Final concentrations for each compound, whether single or combined, were as follows: 100nM for BGJ398, 500 nM for Cpd. A and Cpd. B, and 1.5 μM for Lapatinib. After 96 hours cell viability was measured by CellTiter-Glo as previously described. (FIG. 5, FIG. 6).

[2] = system: ERK and AKT phosphorylation in KYM-1, MG-63, Hs-683 cells; assay: Western blots in KYM-1, MG-63 and Hs-683 cells (data not shown); conditions: 24 h
Description: The indicated cell lines were seeded on 6-well-plates at a density of 500000 cells/well, left for 24 h to attach and then treated with a final concentration of 1 nM of the indicated compounds for another 24 h. Growth media were then removed, cells were washed twice with ice-cold PBS and lysed in 50 mmol/L Tris pH 7.5, 120 mmol/L NaCl, 20 mmol/L NaF, 1 mmol/L EDTA, 6 mmol/L EGTA, 1 mmol/L Benzamidin, 0.2 mmol/L PMSF, 100 mmol/L sodium vanadate, 1% NP-40. The protein concentration of cleared lysates was determined with the BCA Protein Assay Kit. 80 μg protein of each sample was separated by SDS-PAGE on NuPage 4-12% Tris-Bis Midi gels, transferred to a PVDF-membrane, and probed with antibodies as listed above. After washing and incubation with secondary HRP-linked antibodies, bands were visualized using ECL detection reagent.

[3] = system: MKN-45 cells; assay: MKN-45 Dual Inhibition: reversal of rescue with selective inhibitors, CellTiter-Glo cell viability; conditions: for activity on cell viability (reversal of rescue): MET-dependent MKN-45, rhFGF7 or rhNRG-1 250 ng/ml, 96 h, Cpd. A/Cpd. B 100 nM, BGJ398 500 nM, Lapatinib 1.5 μM, FIG. 3, FIG. 4
Description: MKN-45 Secretome screen: MKN-45 cells were plated in white, tissue-culture treated 384-well plates (Greiner) at 3000 cells/20 μl DMEM +10% FBS/well and allowed to attach overnight. Supernatant from library-transfected HEK293T/17 cells was then transferred to the MKN-45 cells at 30 μl/well using a Biomek FX liquid handler (Beckman Coulter) with pipetting speeds reduced to minimize disturbance of the HEK293T/17 monolayer. As positive controls, the purified proteins rhEGF and rhNRG1-31 (R&D Systems) were added to isolated wells on each plate for a final concentration of 150 ng/ml; supernatant from mock-transfected HEK293T/17 wells were transferred as neutral controls. Following addition of supernatants and purified protein controls, Cpd. A diluted in DMEM was added at 10 μl/well for a final assay concentration of 100 nM. After 96 hours incubation, growth was measured using the CellTiter-Glo luminescent cell viability assay system (Promega). In brief, 30 μl CellTiter-Glo reagent was added to all wells, then incubated for 15 minutes at room temperature before reading luminescence on a Viewlux plate reader (Perkin Elmer). (FIG. 1)
MKN-45 Dual Inhibition: MKN-45 cells were seeded at 3000 cells/20 μl/well in 384-well plates and incubated overnight. Solutions of rhFGF7 and rhNRG-1 were prepared in DMEM+10%FBS, then added at 30 μl/well to achieve a final concentration of 250 ng/ml (one purified protein per treatment). The following single and dual inhibition treatments were prepared in DMEM and added at […]: Cpd. A, Cpd. B, BGJ398, Lapatinib, Cpd. A and BGJ398, Cpd. B and BGJ398, Cpd. A and Lapatinib, Cpd. B and Lapatinib. Final concentrations for each compound, whether single or combined, were as follows: 100 nM for Cpd. A and Cpd. B, 500 nM for BGJ398 and 1.5 μM for Lapatinib. After 96 hours cell viability was measured by CellTiter-Glo as previously described. (FIG. 3, FIG. 4)

Row | Structure (SMILES) | activity on cell viability (reversal of rescue) [1] | inhibition of own target as single agent (Western blot) [2] | activity on cell viability (reversal of rescue) [3] | reversal of ligand-mediated rescue of proliferation ([3]; MKN-45 in presence of MET inhibitor Cpd. A or Cpd. B, FIGS. 3, 4)
1 | CNC(=O)c1ccc(-c2cnc3ncc(Cc4ccc5ncccc5c4)n3n2)cc1F [Cpd. B, 2-fluoro-N-methyl-4-[(7-quinolin-6-yl-methyl)-imidazo[1,2-b]triazin-2-yl]benzamide] | not sufficient | effectively inhibited its own target | active | 
2 | CCN1CCN(c2ccc(Nc3cc(N(C)C(=O)Nc4c(Cl)c(OC)cc(OC)c4Cl)ncn3)cc2)CC1 [BGJ398, 3-(2,6-dichloro-3,5-dimethoxy-phenyl)-1-{6-[4-(4-ethylpiperazin-1-yl)-phenylamino]-pyrimidin-4-yl}-1-methyl-urea] | active | effectively inhibited its own target | not sufficient | selectively reverse rescue mediated by FGF7
